From US20130274228A1, “CONCOMITANT DRUG FOR IMPROVING COGNITIVE FUNCTION” (Nishizaki Bioinformation Research Institute, priority 2010, published 2013) come the findings set out here.

This assay relates to normal rats. Kind of assay: Water maze test (acquisition latency). Type of assay: in vivo, rat. The following applies: oral, every day from 7 days before and during the test, male Wister rats. How it is done: Male Wister rats (7-weeks-old) were used for a water maze test. A circular plastic water tank (diameter 180 cm, depth 45 cm) was used. The inside of the water tank was completely painted in black, and dark water with India ink was filled up to 25 cm from the bottom (22° C.). A platform (diameter 11 cm) painted in black was placed in water such that it was 1 cm below the water surface. The water tank was placed in a test room, and several marks seen by the rat from the water tank were put thereon. During the test, the position of the marks was not changed. A platform was placed a predetermined position from the equal distance from the center and the end of the water tank, namely, center of one quadrant. At one of the randomly selected 5 points, the rat was released facing the wall of the water tank, and the time necessary for evacuating on the platform (acquisition latency) was measured. When smoothly evacuated, the rat was left on the platform for 10 seconds. From 7 days before the water maze test and during the test, DLPC (5 mg/kg) alone, DLPC (10 mg/kg) alone, POPC (5 mg/kg) alone, POPC (10 mg/kg) alone, DLPC (5 mg/kg) and POPC (5 mg/kg), or PEG alone, each dissolved in polyethylene glycol (PEG), was orally administered every day. The water maze test m was performed twice a day, and the second test was started at 2 min after the first test. The test was continuously performed for 8 days, and the mean (±SEM) of acquisition latency of continuous 2 days until the rat reached the platform was calculated.
PEG, DLPC (5 mg/kg), DLPC (10 mg/kg), POPC (5 mg/kg), POPC (10 mg/kg) or DLPC (5 mg/kg) and POPC (5 mg/kg) was orally administered to rats every day during the water maze test from 7 days before the test.

As to `CCCCC/C=C\C/C=C\CCCCCCCC(=O)OC[C@H](COP(=O)([O-])OCC[N+](C)(C)C)OC(=O)CCCCCCC/C=C\C/C=C\CCCCC` [DLPC, 1,2-dilinoleoyl-sn-glycero-3-phosphocholine], the “acquisition latency of the rat” value runs as follows: (single administration 5 mg/kg) “did not show a remarkable effect”; (single administration 10 mg/kg) “did not show a remarkable effect”.
Take `CCCCCCCC/C=C\CCCCCCCC(=O)O[C@H](COC(=O)CCCCCCCCCCCCCCC)COP(=O)([O-])OCC[N+](C)(C)C` [POPC, 1-palmitoyl-2-oleoyl-sn-glycero-3-phosphocholine]: the “acquisition latency of the rat” value is given as “did not show a remarkable effect” (single administration 5 mg/kg) and “did not show a remarkable effect” (single administration 10 mg/kg).
